Test results as given in ChEMBL document CHEMBL1201862, “PubChem BioAssay data set” (2004).
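Dose response: 5 concentrations. Exposure: 48 h. Format: 96-well plates. Endpoint: linear interpolation; highest concentration if not reached. Here, GI50 denotes the concentration required for 50% inhibition of growth.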 Activity calls are given as the source filed them. Cut-off read from the data, not from the text of the source: active = GI50 up to about 1.1 µM and inactive = higher.

Assays:
Assay in all cases: DTP human tumour cell line panel, 48 h
[1] = system: 786-0
[2] = system: A549
[3] = system: ACHN
[4] = system: CAKI-1
[5] = system: DMS-114
[6] = system: EKVX
[7] = system: HCC 2998
[8] = system: HCT-116
[9] = system: HCT-15
[10] = system: HL-60
[11] = system: HOP-62
[12] = system: HOP-92
[13] = system: IGROV-1
[14] = system: K562
[15] = system: KM-20L2
[16] = system: KM12
[17] = system: LOX IMVI
[18] = system: LXFL 529
[19] = system: M14
[20] = system: MOLT-4
[21] = system: Malme-3M
[22] = system: NCI-H226
[23] = system: NCI-H23
[24] = system: OVCAR-3
[25] = system: OVCAR-4
[26] = system: OVCAR-5
[27] = system: RXF 393
[28] = system: SF-268
[29] = system: SK-MEL-2
[30] = system: SK-MEL-5
[31] = system: SK-OV-3
[32] = system: SN12C
[33] = system: SNB-19
[34] = system: SNB-75
[35] = system: SNB-78
[36] = system: SW-620
[37] = system: TK-10
[38] = system: U-251
[39] = system: UACC-62
[40] = system: UO-31
[41] = system: A498
[42] = system: CCRF-CEM
[43] = system: COLO 205
[44] = system: DLD-1
[45] = system: DMS-273
[46] = system: HOP-18
[47] = system: HT-29
[48] = system: M19-MEL
[49] = system: NCI-H460
[50] = system: NCI-H522
[51] = system: OVCAR-8
[52] = system: RPMI-8226
[53] = system: SF-295
[54] = system: SF-539
[55] = system: SK-MEL-28
[56] = system: SR

For `Cc1ccccc1C(=O)C1CCCCC1O` (configuration not stated), the GI50 [1] was > 100 µM (inactive), the GI50 [2] was > 100 µM (inactive) and the GI50 [3] was > 100 µM (inactive). For the same molecule, the GI50 [4] was > 100 µM (inactive), the GI50 [5] was > 100 µM (inactive) and the GI50 [6] was > 100 µM (inactive). The GI50 [7] was > 100 µM (inactive), the GI50 [8] was > 100 µM (inactive) and the GI50 [9] was over 100 µM. For the same molecule, the GI50 [10] was > 100 µM (inactive), the GI50 [11] was > 100 µM (inactive) and the GI50 [12] was > 100 µM (inactive). The GI50 [13] was > 100 µM (inactive), the GI50 [14] was > 100 µM (inactive) and the GI50 [15] was > 100 µM (inactive). For the same molecule, the GI50 [16] was > 100 µM (inactive), the GI50 [17] was > 100 µM (inactive) and the GI50 [18] was > 100 µM (inactive). For the same molecule, the GI50 [19] was > 100 µM (inactive), the GI50 [20] was > 100 µM (inactive) and the GI50 [21] was > 100 µM (inactive). The GI50 [22] was > 100 µM (inactive), the GI50 [23] was > 100 µM (inactive) and the GI50 [24] was > 100 µM (inactive). For the same molecule, the GI50 [25] was > 100 µM (inactive), the GI50 [26] was > 100 µM (inactive) and the GI50 [27] was > 100 µM (inactive). For the same molecule, the GI50 [28] was > 100 µM (inactive), the GI50 [29] was > 100 µM (inactive) and the GI50 [30] was > 100 µM (inactive). The GI50 [31] was > 100 µM (inactive), the GI50 [32] was > 100 µM (inactive) and the GI50 [33] was > 100 µM (inactive). For the same molecule, the GI50 [34] was > 100 µM (inactive), the GI50 [35] was 23.8 µM (inactive) and the GI50 [36] was > 100 µM (inactive). The GI50 [37] was > 100 µM (inactive), the GI50 [38] was > 100 µM (inactive) and the GI50 [39] was > 100 µM (inactive). For the same molecule, the GI50 [40] was > 100 µM (inactive).
For `CC([C@H]1CCC2C3CCC4CC5(CC[C@]4(C)C3CC[C@@]21C)c1ccccc1C(=O)N5C)N(C)C` (some centres not stated), the GI50 [1] was 13.9 µM (inactive), the GI50 [41] was 23.8 µM (inactive) and the GI50 [2] was 78.5 µM (inactive). The GI50 [3] was 44.9 µM (inactive), the GI50 [4] was > 100 µM (inactive) and the GI50 [42] was 44.4 µM (inactive). The GI50 [43] was 33 µM (inactive), the GI50 [44] was 36.5 µM (inactive) and the GI50 [5] was 32.4 µM (inactive). The GI50 [45] was 12.9 µM (inactive), the GI50 [7] was > 100 µM (inactive) and the GI50 [8] was 13.3 µM (inactive). The GI50 [9] was 27.7 µM, the GI50 [10] was 17.5 µM (inactive) and the GI50 [46] was > 100 µM (inactive). The GI50 [11] was 31.3 µM (inactive), the GI50 [12] was 50.5 µM (inactive) and the GI50 [47] was 6.18 µM (inactive). The GI50 [13] was 40.6 µM (inactive), the GI50 [14] was 15.7 µM (inactive) and the GI50 [16] was 74.8 µM (inactive). The GI50 [17] was 1.65 µM (inactive), the GI50 [18] was 32.2 µM (inactive) and the GI50 [19] was 13.9 µM (inactive). The GI50 [48] was 17 µM (inactive), the GI50 [20] was 19.2 µM (inactive) and the GI50 [21] was 21.2 µM (inactive). The GI50 [23] was > 100 µM (inactive), the GI50 [49] was 21.4 µM (inactive) and the GI50 [50] was 46.9 µM (inactive). The GI50 [24] was > 100 µM (inactive), the GI50 [25] was 68.1 µM (inactive) and the GI50 [26] was 29 µM (inactive). For the same molecule, the GI50 [51] was 39.8 µM (inactive), the GI50 [52] was 20.7 µM (inactive) and the GI50 [27] was 33 µM (inactive). For the same molecule, the GI50 [28] was > 100 µM (inactive), the GI50 [53] was 18.7 µM (inactive) and the GI50 [54] was 17.9 µM (inactive). For the same molecule, the GI50 [55] was 17.6 µM (inactive), the GI50 [29] was 19.7 µM (inactive) and the GI50 [30] was 17.9 µM (inactive). For the same molecule, the GI50 [31] was > 100 µM (inactive), the GI50 [32] was 31.6 µM (inactive) and the GI50 [33] was 42.3 µM (inactive). The GI50 [34] was 3.45 µM (inactive), the GI50 [56] was 18.1 µM (inactive) and the GI50 [36] was 40.6 µM (inactive). For the same molecule, the GI50 [37] was 26.1 µM (inactive), the GI50 [38] was 40.4 µM (inactive) and the GI50 [39] was 24.5 µM (inactive). The GI50 [40] was 13 µM (inactive).
